# Reference: ChEMBL document CHEMBL1129168, “Synthesis and antiviral activity of new phosphonobutoxypurines” (Bioorg Med Chem Lett, 1996)
# Assays:
# Human alphaherpesvirus 1 = assay: Compound was tested in vitro for antiviral activity against Herpes simplex virus-Type 1 in SC 16 cells.; type: functional, organism-based
# Human alphaherpesvirus 2 = assay: Compound was tested in vitro for antiviral activity against Herpes simplex virus-Type 2 in MS cells.; type: functional, organism-based; settings: Human alphaherpesvirus 2, MS
# MRC5 = assay: Compound was tested in vitro for antiviral activity against Herpes viruses(HSV-2, VZV) in human fibroblast (MRC-5) cells.; type: functional, cell-based
# Homo sapiens = species on record: Homo sapiens; assay: Compound was tested for its activity against HIV replication in human peripheral blood lymphocytes (PBLs) using MTT-based cytotoxicity assay.; type: functional, organism-based
# Human alphaherpesvirus 3 = assay: Compound was tested in vitro for antiviral activity against Varicella zoster virus (VZV) in ellen cells.; type: functional, organism-based
# D34 = assay: Compound was tested in vitro for antiviral activity against Human immunodeficiency virus type-1 in D34 cells.; type: functional, cell-based
Structure (SMILES),IC50 (Human alphaherpesvirus 1) [µg/mL],IC50 (Human alphaherpesvirus 2) [µg/mL],IC50 (MRC5) [µg/mL],IC50 (Homo sapiens) [µM],IC50 (Human alphaherpesvirus 3) [µg/mL],IC50 (D34) [µM]
Nc1nc(O)c2ncn(OCCCCP(=O)(O)O)c2n1,> 100,23,1.6,> 100,6,0.01
Nc1ncnc2c1ncn2OCCCCP(=O)(O)O,> 100,> 100,58,,> 100,> 100
Nc1ncnc2c1ncn2OCC(CO)CCP(=O)(O)O (stereo unspecified),> 100,> 100,> 100,,> 100,> 100
Nc1nc(N)c2ncn(OCC(CO)CCP(=O)(O)O)c2n1 (stereo unspecified),> 100,> 100,78,,17,
Nc1nc(N)c2ncn(OCCCCP(=O)(O)O)c2n1,> 100,> 100,26,> 100,17,1
Nc1nc(O)c2ncn(OCC(CO)CCP(=O)(O)O)c2n1 (stereo unspecified),> 100,> 100,8.8,,5,> 100
